Reference: patent publication US10413581B2, “Combination, composition, and method of administering the combination or composition to animals” (Phibro Animal Health Corporation, priority 2014, dated 2019)

Experiments:
E. maxima [1] = assay: Example 8: lesion score and OPG, E. maxima; format: in vivo, Cobb 500 male chicks; settings: Composition 250 ppm, Salinomycin 66 ppm, alone or combined
Text: (§1) On Days 18, 28, and 35, three birds per pen were sacrificed and coccidial lesion scored for degree of E. acervulina, E. maxima and E. tenella infection (Examples 6 and 7). The system of Johnson and Reid (1970) wherein 0 is normal and 1, 2, 3, or 4 indicate increasing severity of infection were used for lesion scoring. In Example 8, three birds per pen were sacrificed on days […] and coccidial lesion scored for degree of E. acervulina, E. maxima and E. tenella infection. The system of Johnson and Reid (1970) wherein 0 is normal and 1, 2, 3, or 4 indicate increasing severity of infection were used for lesion scoring.
(§2) On Days 18 and 28 fresh fecal samples were collected from each pen (Examples 6 and 7). On Days 18 and 28, fresh fecal samples were collected from each pen (Example 8). These representative samples were tested to determine the degree of oocysts shedding/cycling. Oocysts per gram were determined for each sample.
(§3) In this example, the ability of exemplary compositions to improve bird performance under challenge conditions was determined. In some embodiments, an exemplary composition was administered alone and in other embodiments, it was administered in combination with Salinomycin. In some embodiments, the birds were not fed any additives (that is, neither the composition nor Salinomycin) and in other embodiments the birds were solely fed Salinomycin. The birds used in this example were exposed to ionophore tolerant coccidia in the litter of all pens, beginning from day of age. […] The results from this example further illustrate that the disclosed compositions and combinations are effective to better control coccidia that are partially resistant to ionophores.

coccidia = assay: Example 4: compatibility of the composition with Salinomycin; feed conversion, weight gain, oocysts, coccidial challenge; format: in vivo, broilers; settings: between days 21 and 28; composition 250 ppm, Salinomycin 66 ppm
Experimental: In this particular embodiment, the compatibility of the Yucca schidigera and Quillaja saponaria composition with Salinomycin was evaluated. The treatments included embodiments where no feed additive was provided (e.g., none of the composition added), where 250 ppm of the composition was provided, where 66 ppm of Salinomycin was provided, and embodiments where 250 ppm of the composition and 66 ppm of Salinomycin were provided in combination. The anticoccidial effects and immune potentiation of each test embodiment were evaluated and the results are provided graphically in FIGS. 20-26.
A challenge study was also conducted to evaluate the potential for immune potentiation. Similar to the challenge study described in Example 3, 5 birds were removed from each pen after 21 days. These birds were challenged with a three-species coccidial challenge and then placed in batter cages for seven days. On day 28, the birds were killed and lesion scored.

E. acervulina [2] = assay: Example 8: lesion score and OPG, E. acervulina; format: in vivo, Cobb 500 male chicks; settings: Composition 250 ppm, Salinomycin 66 ppm, alone or combined
Text: as §1, §2, §3

E. acervulina [3] = assay: Example 5: birds infected with E. acervulina field isolate; performance, lesion score, OPG; format: in vivo
Experimental: In this particular embodiment, the effects of the composition and Salinomycin, independently, were evaluated. Lower amounts of the composition were tested, including the amount that is typically used by those in the art (i.e., 125 ppm). Salinomycin treatments used 44 ppm or 66 ppm Salinomycin. Non-infected birds that received no medication were used as a control (entry 1 of Table 2, below). Also, some birds were administered 66 ppm of Salinomycin, but where not infected (entry 7 of Table 2, below). The remaining birds were infected with 200,000 oocysts of field isolate of E. acervulina, which is a species of Eimeria that causes coccidiosis in poultry, particularly […] poultry, and subjected to the treatments described below in entries 2-6 of Table 2.

[4] = test system: ionophore tolerant coccidia; assay: Example 8 floor pen study, ionophore tolerant coccidia in the litter: performance, mortality, total lesion score, total OPG; format: in vivo, Cobb 500 male chicks
Text: In the embodiments described below in Examples 6-8, the following conditions and methods were utilized. The test house was divided into pens of equal size, arranged along a central aisle. Subtracting out for equipment, the initial bird density was ˜0.84 square ft/bird. Each pen had 5 feet high side walls with bottom 1½ feet being of solid wood to prevent bird migration. All flooring of each pen had approximately 4 inches of built-up litter.
The temperature of the building was monitored. Environmental conditions during the trial (temperature) were appropriate (optimum) to the age of the animals Illumination was provided by fluorescent bulbs placed above the pens. The lighting scheme was 24 hours of light per day.
The diets were provided ad libitum in one tube-type feeder per pen. From day 1 until day 7, feed will also be supplied on a tray placed directly on the litter of each pen.
Standard floor pen management practices were used throughout the experiment. Animals and housing facilities were inspected twice daily, observing and recording the general health status, constant feed and water supply as well as temperature, removing all dead birds, and recognizing unexpected events.
All feeds were fed as crumbles/pellets. Quantities of all basal feed and test articles used to prepare treatment batches were documented. Each batch of feed was mixed and bagged separately. Each bag was identified with the study number, date of mix, type of feed, and the correct treatment number. Complete records of feed mixing, and test article inventories were maintained. A sample from the beginning, middle, and end of each treatment feed were mixed to form a composite sample. This sample of each treatment was retained until study end. All feed was weighed by pen. Starter feed was fed from Day 0 to 18. On Day 18, non-consumed starter was weighed and discarded. Grower feed was issued and fed until Day 28. On Day 28, non-consumed grower was weighed and discarded. Finisher feed was issued and fed until Day 42. On Day 42, non-consumed finisher was weighed and discarded.
Day of hatch male chicks were obtained from Cobb-Vantress hatchery, Cleveland, Ga. The strain was Cobb 500. Breeder flock was recorded. 1760 chicks were allocated to the study. At the hatchery, the birds received routine vaccinations. The birds were sexed at the hatchery. In Example 7, all chicks were spray vaccinated with conventional doses of Coccivac-B. Only healthy appearing chicks were used in the study. In examples 6 and 7, fifty-five males were allocated to each treatment pen by blocks. In example 8, fifty-two males were allocated to each treatment pen by blocks. No birds were replaced during the course of the study. Number and disposition of all birds not used for allocation were documented. Bird weights (kg) by pen were recorded at study initiation, Day 18, 28, and termination (Day 42).
as §1
On Days 18 and 28 fresh fecal samples were collected from each pen (Examples 6 and 7). […] These representative samples were tested to determine the degree of oocysts shedding/cycling. Oocysts per gram were determined for each sample.
In this example, the ability of exemplary compositions to improve bird performance under challenge conditions was determined. […]

E. tenella [5] = assay: Example 8: lesion score and OPG, E. tenella; format: in vivo, Cobb 500 male chicks; settings: Composition 250 ppm, Salinomycin 66 ppm, alone or combined
Text: as §1, §2, §3

E. tenella [6] = assay: Example 5: birds infected with E. tenella field isolate; performance, lesion score, OPG; format: in vivo
Text: In another test embodiment, the effects of lower amounts of NFP (e.g., 100 ppm, 125 ppm, and 150 ppm) on birds infected with E. tenella, a species of Eimeria that causes hemorrhagic cecal coccidiosis in poultry, particularly young poultry. Infected birds were infected with 100,000 oocysts of field isolate of E. tenella. The infected birds were subjected to the treatments described below in entries 2-6 of Table 4.

E. maxima [7] = assay: Example 5: birds infected with E. maxima field isolate; performance, lesion score, OPG; format: in vivo
Text: Similar protocols were used to determine the effects of lower amounts of NFP (e.g., 100 ppm, 125 ppm, and 150 ppm) on birds infected with E. maxima, a common form of Eimeria found in commercial broilers. Infected birds were infected with 37,500 oocysts of field isolate of E. maxima. The infected birds were subjected to the treatments described below in entries 2-6 of Table 3.

[8] = test system: coccidial contaminated litter; assay: Example 2: live performance of male broiler chickens, coccidial contaminated litter added to pens; format: in vivo; settings: 22 ppm Virginiamycin, throughout the test
Experimental: In this example, the live performance of male broiler chickens during a standard diet program with and without an embodiment of the disclosed combination was determined. In this embodiment, the combination comprised Virginiamycin and different levels of the composition, particularly 0 ppm, 150 ppm, 200 ppm, and 250 ppm, and further comprising Avatec 90. A disease challenge was presented in each pen by adding coccidial contaminated litter to the pen.

[9] = 44 ppm, birds infected with 200,000 oocysts of E. acervulina
[10] = 66 ppm, entry 7 of Table 2 (not infected)
[11] = Day 18, Composition 250 ppm, Salinomycin 66 ppm, alone or combined
[12] = Day 28, Composition 250 ppm, Salinomycin 66 ppm, alone or combined
[13] = Day 42, Composition 250 ppm, Salinomycin 66 ppm, alone or combined
[14] = 44 ppm, birds infected with 100,000 oocysts of E. tenella
[15] = 66 ppm, entry 7 of Table 4 (entries 2-6 infected)
[16] = 44 ppm, birds infected with 37,500 oocysts of E. maxima
[17] = 66 ppm, entry 7 of Table 3 (entries 2-6 infected)

CC[C@@H](C(=O)[C@@H](C)[C@@H](O)[C@H](C)[C@@H]1O[C@@H]([C@@H](CC)C(=O)O)CC[C@@H]1C)[C@H]1O[C@]2(C=C[C@@H](O)[C@]3(CC[C@@](C)([C@H]4CC[C@](O)(CC)[C@H](C)O4)O3)O2)[C@H](C)C[C@@H]1C [Salinomycin]
Lesion Scores E.M. (E. maxima [1]; Day 18): 0.7a | OPG E.M. (E. maxima [1]; Day 21): 1910bc oocysts per gram | Lesion Scores E.M. (E. maxima [1]; Day 28): 0.5b | OPG E.M. (E. maxima [1]; Day 28): 955b oocysts per gram | susceptibility of broilers to coccidial challenge (coccidia): increased the susceptibility | Lesion Scores E.A. (E. acervulina [2]; Day 18): 1.3a | OPG E.A. (E. acervulina [2]; Day 21): 2915bc oocysts per gram | Lesion Scores E.A. (E. acervulina [2]; Day 28): 1.2ab | OPG E.A. (E. acervulina [2]; Day 28): 3819b oocysts per gram | Adj. Fd. Conv. (E. acervulina [3]; [9]): 1.946 b | Avg. Wt. Gain (E. acervulina [3]; [9]): 0.241 ab | Feed Consum. (E. acervulina [3]; [9]): 2.804 a | Lesion Score (E. acervulina [3]; [9]): 1.3 c | OPG (E. acervulina [3]; [9]): 2734 oocysts per gram of fecal material | Adj. Fd. Conv. (E. acervulina [3]; [10]): 1.948 b | Avg. Wt. Gain (E. acervulina [3]; [10]): 0.231 b | Feed Consum. (E. acervulina [3]; [10]): 2.692 ab | Lesion Score (E. acervulina [3]; [10]): 1.4 c | OPG (E. acervulina [3]; [10]): 217 oocysts per gram of fecal material | Adj. FCR [4, 11]: 1.420ab | Feed Intake [4, 11]: 24.76a | Lesion Scores Total [4, 11]: 0.8b | Wt. Gain [4, 11]: 0.294a kg | OPG Total ([4]; Day 21, Composition 250 ppm, Salinomycin 66 ppm, alone or combined): 10352b oocysts per gram | Adj. FCR [4, 12]: 1.619b | Feed Intake [4, 12]: 74.09a | Lesion Scores Total [4, 12]: 0.6b | OPG Total [4, 12]: 7839b oocysts per gram | Wt. Gain [4, 12]: 0.875a kg | Adj. FCR [4, 13]: 1.773bc | Feed Intake [4, 13]: 175.68a | Mortality [4, 13]: 6.5a | Wt. Gain [4, 13]: 2.114a kg | performance ([4]; day 18, Salinomycin alone): did not improve performance | Lesion Scores E.T. (E. tenella [5]; Day 18): 0.5b | OPG E.T. (E. tenella [5]; Day 21): 5528a oocysts per gram | Lesion Scores E.T. (E. tenella [5]; Day 28): 0.1b | OPG E.T. (E. tenella [5]; Day 28): 3065ab oocysts per gram | Adj. Fd. Conv. (E. tenella [6]; [14]): 1.929 ab | Avg. Wt. Gain (E. tenella [6]; [14]): 0.242 ab | Feed Consum. (E. tenella [6]; [14]): 2.787 a | Lesion Score (E. tenella [6]; [14]): 0.8 c | OPG (E. tenella [6]; [14]): 800 oocysts per gram of fecal material | Adj. Fd. Conv. (E. tenella [6]; [15]): 1.863 bc | Avg. Wt. Gain (E. tenella [6]; [15]): 0.245 ab | Feed Consum. (E. tenella [6]; [15]): 2.671 a | Lesion Score (E. tenella [6]; [15]): 0.6 c | OPG (E. tenella [6]; [15]): 150 oocysts per gram of fecal material | Adj. Fd. Conv. (E. maxima [7]; [16]): 2.021 b | Avg. Wt. Gain (E. maxima [7]; [16]): 0.225 b | Feed Consum. (E. maxima [7]; [16]): 2.718 ab | Lesion Score (E. maxima [7]; [16]): 1.3 cd | OPG (E. maxima [7]; [16]): 4435 oocysts per gram of fecal material | Adj. Fd. Conv. (E. maxima [7]; [17]): 1.960 b | Avg. Wt. Gain (E. maxima [7]; [17]): 0.230 b | Feed Consum. (E. maxima [7]; [17]): 2.647 bc | Lesion Score (E. maxima [7]; [17]): 1.2 days | OPG (E. maxima [7]; [17]): 167 oocysts per gram of fecal material

Virginiamycin
feed conversion rates [8]: improved feed conversion rates
